Key:
HeLaS3 cells = assay: Inhibition on the Growth of HeLaS3 Cells (Neutral Red staining); format: cell-based; settings: Homo sapiens, HeLa S3, 72 hours at 37° C., absorbance at 550 nm, read-out: IC50 (the concentration of the test compound capable of inhibiting the growth of the cells at a ratio of 50%)
Method: (A) Inhibition on the Growth of HeLaS3 Cells
0.1 ml portions of a 3×10^4 cell/ml suspension of HeLaS3 cells [American Type Culture Collection (ATCC) CCL2.2]. in Minimum Essential Medium (MEM) medium (mfd. by Nissui Seiyaku) containing 10% of calf fetal serum and 2 mM of glutamine (hereinafter referred to as the medium A) were pipetted into a 96-well microtiter plate. 0.05 ml of the test compound optionally diluted with the medium A is added to each well, followed by incubating in a carbon dioxide gas incubator at 37° C. for 72 hours. After removing supernatant the culture 0.1 ml of the medium A containing 0.02% of Neutral Red is added to the residue. The cells are cultivated in the carbon dioxide gas incubator at 37° C. for additional one hour to thereby stain the cells. After removing the supernatant of culture, the residue was washed with saline once. The pigment is extracted with 0.001 N hydrochloric acid/30% ethanol and the absorbance at 550 nm is measured with a microplate reader. Then IC50 (the concentration of the test compound capable of inhibiting the growth of the cells at a ratio of 50%) is calculated on the basis of the comparison between the absorbance of untreated cells and that of the test compound-treated cells (at various concentration of the test compound).

Solubility = format: physicochemical

IC50 (HeLaS3 cells): 18 nM | Solubility (Solubility; in dimethylsulfoxide (DMSO), N,N-dimethylformamide and pyridine): soluble | Solubility (Solubility; in water, ethanol, methanol, ethyl acetate and chloroform): hardly soluble
Compound: Cc1c(O)cc2c(c1O)C(=O)c1c(cc3cc(O)cc(CC(=O)CC(C)O)c3c1O)C2=O (stereo not drawn) [UCE6]

Source: patent US5366966A, “Compound UCE6” (Kyowa Hakko Kogyo Co., Ltd., priority 1992, dated 1994)
